{"source": "patent US9474790B2", "about": "“Stable, protracted GLP-1/glucagon receptor co-agonists for medical use” (Novo Nordisk A/S, priority 2013, dated 2016)", "key": {"[1]": {"experiment": "Chemical stability assessment by RP-UPLC", "assay_type": "physicochemical", "details": "333 μM, 8 mM phosphate buffer pH 7.3, 37° C. vs 5° C.", "description": "The purpose of this assay was to assess the chemical stability of the glucagon derivatives of the invention in aqueous solutions.\nChemical stability of glucagon derivatives or analogues was investigated by RP-UPLC separation and UV detection. Lyophilized samples were dissolved in a 8 mM Phosphate buffer pH 8.6, followed by adjustment to pH 7.3.using HCl to a final concentration of 333 μM. Samples were incubated for 14 days at 5° C. and 37° C. followed by RP-UPLC analysis. Purity was defined as the area percentage of the main peak in relation to the total area of all integrated peaks in each chromatogram. Purity loss after 14 days at 37° C. was determined as the difference in purity between the samples incubated at 5° C. and 37° C., divided by the purity of the sample after incubation for 14 days at 5° C.\nRP-UPLC analysis was performed using a Waters BEH130 2.1 mm×150 mm, 1.7 μm column operated at 50° C. and a flow rate of 0.4 mL/min using a mobile phase system consisting of A: 0.05% TFA in MQ-water B: 0.05% TFA in Acetonitrile. UV-detection was performed at 215 nm. The typical gradient profile used for most of the samples is shown below.\nFor some individual derivatives or analogues eluting at substantially different retention times compared with the majority of derivatives or analogues, some adjustments to the gradient profile were made to better enable purity assessment comparison across samples. The data confirmed the improved chemical stability of the glucagon derivatives of this invention."}, "human glucagon receptor": {"molecular_target": "T1, human glucagon receptor (Homo sapiens, UniProt P47871)", "T1 construct": "expressed in transfected cells; host or cells: BHK cells (parent BHK570, CRE luciferase clone BHK/KZ10-20-48), clone pLJ6'-4-25", "T1 sequence (P47871 26-477)": "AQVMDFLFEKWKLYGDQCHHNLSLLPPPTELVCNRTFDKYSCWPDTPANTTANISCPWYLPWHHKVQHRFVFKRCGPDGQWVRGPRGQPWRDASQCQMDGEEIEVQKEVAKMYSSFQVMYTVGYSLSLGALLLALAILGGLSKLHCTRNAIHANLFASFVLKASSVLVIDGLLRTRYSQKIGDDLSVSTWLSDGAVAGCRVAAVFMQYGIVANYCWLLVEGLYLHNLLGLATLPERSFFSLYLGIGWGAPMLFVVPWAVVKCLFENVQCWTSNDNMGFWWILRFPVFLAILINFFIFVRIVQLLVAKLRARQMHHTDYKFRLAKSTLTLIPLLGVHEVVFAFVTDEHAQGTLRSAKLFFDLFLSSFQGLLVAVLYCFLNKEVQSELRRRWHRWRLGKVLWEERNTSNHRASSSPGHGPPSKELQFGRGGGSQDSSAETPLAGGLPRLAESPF", "experiment": "Glucagon receptor potency, CRE luciferase reporter gene assay in BHK cells", "assay_type": "cell-based", "details": "BHK cells expressing human glucagon receptor, read-out: EC50 GlucR", "description": "The purpose of this example was to test the potency, of the glucagon derivatives of the invention, in vitro. The in vitro potency is the measure of human GLP-1 receptor or glucagon receptor activation, respectively, in a whole cell assay.\nIn vitro potency was determined by measuring the response of human GLP-1 or glucagon receptor, respectively, in a reporter gene assay. The assay was performed in a stably transfected BHK cell line that expresses either the human GLP-1 receptor or the human glucagon receptor and contains the DNA for the cAMP response element (CRE) coupled to a promoter and the gene for firefly luciferase (CRE luciferase). […] When assay incubation was completed, the luciferase substrate (luciferin) was added and the enzyme converted luciferin to oxyluciferin and produces bioluminescence. The luminescence was measured as the readout for the assay.\nThe cells used in this assay (clone pLJ6′-4-25) were BHK cells with BHK570 as a parent cell line expressing the CRE luciferase gene (clone BHK/KZ10-20-48) and were established by further transfection with the human glucagon receptor (clone pLJ6′ in pHZ-1 vector).\nThe cells were cultured at 5% CO2 in DMEM medium with 10% FBS, 1×GlutaMAX, 1 mg/ml G418, 240 nM MTX (methotrexate) and 1% pen/strep (penicillin/streptomycin). They were aliquoted and stored in liquid nitrogen. Before each assay, an aliquot was taken up and washed three times in PBS before being suspended at the desired concentration in assay medium. For 96-well plates the suspension was made to give a final concentration of 5×10EE3 cells/well.\nThe following chemicals were used in the assay: Pluronic F-68 (10%) (Gibco 2404), ovalbumin (Sigma A5503), DMEM w/o phenol red (Gibco 11880-028), 1 M Hepes (Gibco 15630), Glutamax 100× (Gibco 35050) and steadylite plus (PerkinElmer 6016757).\nAssay Medium consisted of DMEM w/o phenol red, 10 mM Hepes, 1× GlutaMAX, 2% Ovalbumin and 0.2% Pluronic F-68.\nCell stocks were thawed in a 37° C. water bath. Cells were washed three times in PBS. The cells were counted and adjusted to 5×10EE3 cells/50 μl (1×10EE5 cells/ml) in Assay Medium. A 50 μl aliquot of cells was transferred to each well in the assay plate.\nStocks of the test compounds and reference compounds were diluted to a concentration of […] in Assay Medium. Compounds were diluted 10-fold to give the following concentrations: 2×10EE-6 M, 2×10EE-7 M, 2×10EE-8 M; 2×10EE-9 M, 2×10EE-10 M, 2×10EE-11 M, 2×10EE-12 M and 2×10EE-13 M. For each compound a blank assay medium control was also included.\nA 50 μl aliquot of compound or blank was transferred from the dilution plate to the assay plate. Compounds were tested at the following final concentrations: 1×10EE-6 M, 1×10EE-7 M, 1×10EE-8 M; 1×10EE-9 M, 1×10EE-10 M, 1×10EE-11 M and 1×10EE-12 M and 1×10EE-13 M.\nThe assay plate was incubated for 3 h in a 5% CO2 incubator at 37° C. The assay plate was removed from the incubator and allowed to stand at room temperature for 15 min. A 100 μl aliquot of steadylite plus reagent was added to each well of the assay plate (reagent is light sensitive). Each assay plate was covered with aluminum foil to protect it from light and shaken for 30 min at room temperature. Each assay plate was read in a Perkin Elmer TopCount NXT instrument.\nThe data from the TopCount instrument was transferred to GraphPad Prism software. The software performed a non-linear regression (log(agonist) vs response-Variable slope (four parameter)). EC50 values were calculated by the software and reported in pM."}, "[2]": {"experiment": "Thioflavin T (ThT) fibrillation assay for physical stability", "assay_type": "physicochemical", "details": "250 μM in 10 mM HEPES buffer, pH 7.5, 37° C., shaking 960 rpm", "outline": "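Peptide at 250 μM in 10 mM HEPES pH 7.5 with 1 μM ThT, at 37° C with 960 rpm orbital shaking. Fluorescence (ex 444/em 485 nm) read every 20 min after 10 min pre-incubation; sigmoidal fit gives lag time (t0−2τ) and kapp (1/τ). Recovery is RP-HPLC peptide in the centrifuged, 0.22 μm-filtered supernatant as % of initial.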"}}, "note": "Numbered stars: 1 amine (or outer) side, 2 acyl side, 3 side chain; on linkers, the order of the positions; unused ones are H or OH. Square brackets hold non-standard residues; d marks the D form. Side chains are listed from the residue outwards. Peptide text beside a SMILES is read from it. * marks the point of attachment. C18 diacid = O=C(O)CCCCCCCCCCCCCCCCC(=O)*; γGlu = O=C(O)[C@H](CCC(=O)[*:2])N[*:1]; AEEA = NCCOCCOCC(=O)O; Aib = CC(C)(N)C(=O)O", "data": [{"smiles": "CC(C)C[C@H](NC(=O)[C@H](CC(C)C)NC(=O)[C@H](Cc1c[nH]c2ccccc12)NC(=O)[C@H](CCC(N)=O)NC(=O)[C@@H](NC(=O)[C@H](Cc1ccccc1)NC(=O)[C@H](CCC(=O)O)NC(=O)[C@H](CCCNC(=N)N)NC(=O)[C@H](C)NC(=O)[C@H](CCCNC(=N)N)NC(=O)[C@H](CCCNC(=N)N)NC(=O)[C@H](CC(C)C)NC(=O)[C@H](CC(=O)O)NC(=O)[C@H](CC(C)C)NC(=O)[C@H](Cc1ccc(O)cc1)NC(=O)[C@H](CCCCN)NC(=O)[C@H](CO)NC(=O)[C@H](CC(C)C)NC(=O)[C@H](CC(=O)O)NC(=O)[C@H](CO)NC(=O)[C@@H](NC(=O)[C@H](Cc1ccccc1)NC(=O)[C@@H](NC(=O)CNC(=O)[C@H](CCC(N)=O)NC(=O)C(C)(C)NC(=O)[C@@H](N)Cc1c[nH]cn1)[C@@H](C)O)[C@@H](C)O)C(C)C)C(=O)N[C@@H](CC(N)=O)C(=O)N[C@@H](CCCCNC(=O)CC[C@H](NC(=O)CC[C@H](NC(=O)COCCOCCNC(=O)CC[C@H](NC(=O)CCCCCCCCCCCCCCCCC(=O)O)C(=O)O)C(=O)O)C(=O)O)C(N)=O", "note": "[Example 38, N^ε29-[(4S)-4-carboxy-4-[[(4S)-4-carboxy-4-[[2-[2-[2-[[(4S)-4-carboxy-4-(17-carboxyheptadecanoylamino)butanoyl]amino]ethoxy]ethoxy]acetyl]amino]butanoyl]amino]butanoyl]-[Aib2,Leu10,Leu16,Arg20,Glu21,Leu27,Lys29]-Glucagon amide] (H-H[Aib]QGTFTSDLSKYLDLRRAREFVQWLLNK([γGlu-γGlu-AEEA-γGlu-C18 diacid])-NH2; N-terminus assumed)", "values": [{"measurement": "Purity loss; 14 days at 37° C.", "setting": "[1]", "value": 2, "unit": "%"}, {"measurement": "EC50", "setting": "human glucagon receptor", "value": 0.024, "unit": "nM"}, {"measurement": "THT assay Lag time (Ex. 76)", "setting": "[2]", "value": 45, "unit": "h"}]}]}
